Tests used:
Format in all cases: functional
[1] = Local anaesthetic activity in rat sciatic nerve assessed as time required to decrease compound action potential to 100 % relative to Lidocaine; parameters: scale not given: the % may be the effect or the level left
[2] = Local anaesthetic activity in rat sciatic nerve assessed as time required to decrease compound action potential to 50 % relative to Lidocaine; parameters: scale not given: the % may be the effect or the level left
[3] = Local anaesthetic activity in rat sciatic nerve assessed as vitality time
[4] = Local anaesthetic activity in rat sciatic nerve assessed as time required to decrease compound action potential to 100 %
[5] = Local anaesthetic activity in rat sciatic nerve assessed as time required to decrease compound action potential to 50 %
[6] = Local anaesthetic activity in rat sciatic nerve assessed as time required to decrease compound action potential to recover to 50 %
[7] = Local anaesthetic activity in rat sciatic nerve assessed as time required to decrease compound action potential to 100 % at 1.5% relative to Lidocaine; parameters: scale not given: the % may be the effect or the level left
[8] = Local anaesthetic activity in rat sciatic nerve assessed as vitality time at 1.5%
[9] = Local anaesthetic activity in rat sciatic nerve assessed as time required to decrease compound action potential to 50 % at 1.5% relative to Lidocaine; parameters: scale not given: the % may be the effect or the level left
[10] = Local anaesthetic activity in rat sciatic nerve assessed as time required to decrease compound action potential to recover to 50 % at 1.5%
[11] = Local anaesthetic activity in rat sciatic nerve assessed as time required to decrease compound action potential to 50 % at 1.5%
[12] = Local anaesthetic activity in rat sciatic nerve assessed as time required to decrease compound action potential to 100 % at 1.5%

SMILES	Activity [1] [%]	Activity [2] [%]	VT50 [3] [min]	IT100 [4] [min]	IT50 [5] [min]	RT50 [6] [min]	Activity [7] [%]	VT50 [8] [min]	Activity [9] [%]	RT50 [10] [min]	IT50 [11] [min]	IT100 [12] [min]
Cc1ccc2snc(NC(=O)C(C)N3CCOCC3)c2c1 (stereo not drawn)	70	140.8	738	20	2.23	60	–	–	–	–	–	–
CCN(CC)CC(=O)Nc1nsc2ccccc12	–	–	–	–	–	–	26	600	26.2	121.5	12	53.9
Cc1ccc2snc(NC(=O)C(C)NC3CCCCC3)c2c1 (stereo not drawn)	32.9	8.1	–	42.5	39	–	–	–	–	–	–	–
CC(C(=O)Nc1nsc2ccccc12)N1CCCCC1 (stereo not drawn)	73.7	21.7	500	20.9	8.9	58	–	–	–	–	–	–
CCNCC(=O)Nc1nsc2ccccc12	57.9	62.8	600	24.2	5	76	28.1	658	27.3	135	11.5	49.9
CC(C(=O)Nc1nsc2ccccc12)N(C)C (stereo not drawn)	70	18.8	690	14	7.4	77	–	–	–	–	–	–
CCNC(C)C(=O)Nc1nsc2ccc(C)cc12 (stereo not drawn)	108.5	74.8	702	12.9	4.2	100	–	–	–	–	–	–
CNCC(=O)Nc1nsc2ccccc12	41.2	31.4	786	34	10	48	–	–	–	–	–	–
O=C(CN1CCC(c2ccccc2)CC1)Nc1nsc2ccccc12	–	17	–	–	18.5	–	–	–	–	–	–	–
CNC(C)C(=O)Nc1nsc2ccccc12 (stereo not drawn)	121.7	24.5	450	26.7	12.8	68	–	–	–	–	–	–
CCCNC(C)C(=O)Nc1nsc2ccccc12 (stereo not drawn)	70	31.4	750	24.1	5.3	88.9	–	–	–	–	–	–
CC(NC1CCCCC1)C(=O)Nc1nsc2ccccc12 (stereo not drawn)	63.6	44.9	–	25.3	5.8	52.3	–	–	–	–	–	–
O=C(CN1CCOCC1)Nc1nsc2ccccc12	140	57.1	511	10	5.5	88	26	666.7	26.2	40	8.1	19
CCN(CC)C(C)C(=O)Nc1nsc2ccccc12 (stereo not drawn)	84.8	49.8	404.2	14.1	3.85	57.7	–	–	–	–	–	–
CNC(C)C(=O)Nc1nsc2ccc(C)cc12 (stereo not drawn)	70	47.6	780	20	6.6	60	–	–	–	–	–	–
Cc1ccc2snc(NC(=O)C(C)N3CCCC3)c2c1 (stereo not drawn)	80	179	498	17.5	1.75	122	–	–	–	–	–	–
O=C(CCN1CCCC1)Nc1nsc2ccccc12	68.6	31.4	870	20.4	10	136.6	–	–	–	–	–	–

SMILES	Activity [1] [%]	Activity [2] [%]	VT50 [3] [min]	IT100 [4] [min]	IT50 [5] [min]	RT50 [6] [min]	Activity [7] [%]	VT50 [8] [min]	Activity [9] [%]	RT50 [10] [min]	IT50 [11] [min]	IT100 [12] [min]
CCNC(C)C(=O)Nc1nsc2ccccc12 (stereo not drawn)	108.5	74.8	861	12.9	4.2	100	–	–	–	–	–	–
CC(C(=O)Nc1nsc2ccccc12)N1CCOCC1 (stereo not drawn)	60.9	26.6	350	23	11.8	126	–	–	–	–	–	–
CN(C)CC(=O)Nc1nsc2ccccc12	–	29.9	250	–	10.5	100	–	–	–	–	–	–
CCCNCC(=O)Nc1nsc2ccccc12	80	31.4	250	17.5	10	200	–	–	–	–	–	–
CCNCCC(=O)Nc1nsc2ccccc12	17.6	12	400.8	79.5	26.1	154.8	–	–	–	–	–	–
CC(C)NCC(=O)Nc1nsc2ccccc12	46.4	25.9	–	30.2	12.13	150	–	–	–	–	–	–
O=C(CCN1CCOCC1)Nc1nsc2ccccc12	78.2	44.9	–	17.9	7	86	–	–	–	–	–	–
CNCCC(=O)Nc1nsc2ccccc12	68.3	29.2	839	20.5	10.75	136	–	–	–	–	–	–
CC(C(=O)Nc1nsc2ccccc12)N1CCCC1 (stereo not drawn)	120.7	40.8	600	11.6	7.7	135	–	–	–	–	–	–
CCCNC(C)C(=O)Nc1nsc2ccc(C)cc12 (stereo not drawn)	65.1	23.6	365	14.8	7.4	–	–	–	–	–	–	–
O=C(CN1CCCC1)Nc1nsc2ccccc12	100	62.8	610	14	5	105	49.5	705.5	26.4	101.5	11.9	28.3
Cc1ccc2snc(NC(=O)C(C)N(C)C)c2c1 (stereo not drawn)	75.7	25.7	1012	23.75	11.6	162	–	–	–	–	–	–
Cc1ccc2snc(NC(=O)C(C)N3CCCCC3)c2c1 (stereo not drawn)	37.8	28.5	–	37	11	–	–	–	–	–	–	–
CC1CCN(CC(=O)Nc2nsc3ccccc23)CC1	37.4	12.3	930	37.45	25.5	122	–	–	–	–	–	–
O=C(CN1CCCCC1)Nc1nsc2ccccc12	87.5	44.9	500	16	7	142.7	59.8	555.8	39	141.2	8.05	23.4
CCN(CC)CC(=O)Nc1c(C)cccc1C [LIDOCAINE]	100	100	660	14	3.14	48.75	–	–	–	–	–	–
